Laboratory results: ChEMBL document CHEMBL3885861, “Open TG-GATES”

Species on record: Rattus norvegicus
Experiment: Open TG-GATES - Regimen: Daily Repeat
Type: toxicity, organism-based, Sprague-Dawley
Design: regimen Daily Repeat, gender Male, age 6 weeks
Settings: in vivo, po, 100 mg/kg, route gavage, dose level High; for APTT / Bas / Eos / Fbg / Hb / Ht / Lym / MCH / MCHC / MCV / Mono / Neu / PT / Plat / RBC / Ret / WBC: tissue Blood; for KIDNEY_L / KIDNEY_R / KIDNEY_TOTAL: tissue Kidney; for LIVER: tissue Liver; for A/G / ALP / ALT / AST / BUN / CRE / Ca / Cl / DBIL / GLC / IP / K / LDH / Na / PL / RALB / TBIL / TC / TG / TP / gamma-GTP: tissue Plasma

Compound: CCC1(c2ccccc2)C(=O)NC(=O)NC1=O [PHENOBARBITAL]
- TERMINAL_BW (72 h, time 3 day): 223.9 g
- APTT (72 h, time 3 day): 15.7 s
- Bas (72 h, time 3 day): 0%
- Eos (72 h, time 3 day): 0.4%
- Fbg (72 h, time 3 day): 214.6 mg/dL
- Hb (72 h, time 3 day): 13.6 g/dL
- Ht (72 h, time 3 day): 40.7%
- Lym (72 h, time 3 day): 82.8%
- MCH (72 h, time 3 day): 21.9 pg
- MCHC (72 h, time 3 day): 33.3%
- MCV (72 h, time 3 day): 65.9 fL
- Mono (72 h, time 3 day): 6.8%
- Neu (72 h, time 3 day): 10%
- PT (72 h, time 3 day): 11.4 s
- Plat (72 h, time 3 day): 115.9 x10_4/uL
- RBC (72 h, time 3 day): 617.6 x10_4/ul
- Ret (72 h, time 3 day): 6.6%
- WBC (72 h, time 3 day): 159.6 x10_2/uL
- KIDNEY_L (72 h, time 3 day): 1 g
- KIDNEY_R (72 h, time 3 day): 1 g
- KIDNEY_TOTAL (72 h, time 3 day): 2 g
- LIVER (72 h, time 3 day): 14.1 g
- A/G (72 h, time 3 day): 1.6
- ALP (72 h, time 3 day): 945.6 IU/L
- ALT (72 h, time 3 day): 37 IU/L
- AST (72 h, time 3 day): 60.6 IU/L
- BUN (72 h, time 3 day): 14.2 mg/dL
- CRE (72 h, time 3 day): 0.5 mg/dL
- Ca (72 h, time 3 day): 10.8 mg/dL
- Cl (72 h, time 3 day): 104.6 meq/L
- DBIL (72 h, time 3 day): 0.028 mg/dL
- GLC (72 h, time 3 day): 188.6 mg/dL
- IP (72 h, time 3 day): 8 mg/dL
- K (72 h, time 3 day): 5.1 meq/L
- LDH (72 h, time 3 day): 112.4 IU/L
- Na (72 h, time 3 day): 137.4 meq/L
- PL (72 h, time 3 day): 157.2 mg/dL
- RALB (72 h, time 3 day): 3.6 g/dL
- TBIL (72 h, time 3 day): 0.4 mg/dL
- TC (72 h, time 3 day): 82.2 mg/dL
- TG (72 h, time 3 day): 118.6 mg/dL
- TP (72 h, time 3 day): 5.9 g/dL
- gamma-GTP (72 h, time 3 day): 1 IU/L
- TERMINAL_BW ([…], time 7 day): 257.9 g
- TERMINAL_BW ([…], time 14 day): 304.3 g
- TERMINAL_BW ([…], time 28 day): 378.9 g
- APTT ([…], time 7 day): 16.7 s
- Bas ([…], time 7 day): 0%
- Eos ([…], time 7 day): 1%
- Fbg ([…], time 7 day): 241.6 mg/dL
- Hb ([…], time 7 day): 13.8 g/dL
- Ht ([…], time 7 day): 41.4%
- Lym ([…], time 7 day): 78.8%
- MCH ([…], time 7 day): 22 pg
- MCHC ([…], time 7 day): 33.4%
- MCV ([…], time 7 day): 66 fL
- Mono ([…], time 7 day): 7.4%
- Neu ([…], time 7 day): 13%
- PT ([…], time 7 day): 11.5 s
- Plat ([…], time 7 day): 116.8 x10_4/uL
- RBC ([…], time 7 day): 629.6 x10_4/ul
- Ret ([…], time 7 day): 7.5%
- WBC ([…], time 7 day): 104.3 x10_2/uL
- APTT ([…], time 14 day): 17.5 s
- Bas ([…], time 14 day): 0%
- Eos ([…], time 14 day): 0%
- Fbg ([…], time 14 day): 228.6 mg/dL
- Hb ([…], time 14 day): 14.7 g/dL
- Ht ([…], time 14 day): 43.9%
- Lym ([…], time 14 day): 86%
- MCH ([…], time 14 day): 20.7 pg
- MCHC ([…], time 14 day): 33.4%
- MCV ([…], time 14 day): 61.9 fL
- Mono ([…], time 14 day): 4.2%
- Neu ([…], time 14 day): 9.4%
- PT ([…], time 14 day): 11.5 s
- Plat ([…], time 14 day): 115.5 x10_4/uL
- RBC ([…], time 14 day): 709.4 x10_4/ul
- Ret ([…], time 14 day): 5%
- WBC ([…], time 14 day): 166 x10_2/uL
- APTT ([…], time 28 day): 19.1 s
- Bas ([…], time 28 day): 0%
- Eos ([…], time 28 day): 0.4%
- Fbg ([…], time 28 day): 226.8 mg/dL
- Hb ([…], time 28 day): 15.3 g/dL
- Ht ([…], time 28 day): 46.1%
- Lym ([…], time 28 day): 87.8%
- MCH ([…], time 28 day): 19.8 pg
- MCHC ([…], time 28 day): 33.2%
- MCV ([…], time 28 day): 59.4 fL
- Mono ([…], time 28 day): 2.2%
- Neu ([…], time 28 day): 9.6%
- PT ([…], time 28 day): 12.4 s
- Plat ([…], time 28 day): 105.1 x10_4/uL
- RBC ([…], time 28 day): 775.6 x10_4/ul
- Ret ([…], time 28 day): 3%
- WBC ([…], time 28 day): 170.6 x10_2/uL
- KIDNEY_L ([…], time 7 day): 1.1 g
- KIDNEY_R ([…], time 7 day): 1.1 g
- KIDNEY_TOTAL ([…], time 7 day): 2.1 g
- KIDNEY_L ([…], time 14 day): 1.2 g
- KIDNEY_R ([…], time 14 day): 1.2 g
- KIDNEY_TOTAL ([…], time 14 day): 2.4 g
- KIDNEY_L ([…], time 28 day): 1.4 g
- KIDNEY_R ([…], time 28 day): 1.4 g
- KIDNEY_TOTAL ([…], time 28 day): 2.8 g
- LIVER ([…], time 7 day): 17.1 g
- LIVER ([…], time 14 day): 18.1 g
- LIVER ([…], time 28 day): 20.8 g
- A/G ([…], time 7 day): 1.5
- ALP ([…], time 7 day): 717.2 IU/L
- ALT ([…], time 7 day): 32.6 IU/L
- AST ([…], time 7 day): 58.8 IU/L
- BUN ([…], time 7 day): 18 mg/dL
- CRE ([…], time 7 day): 0.6 mg/dL
- Ca ([…], time 7 day): 11 mg/dL
- Cl ([…], time 7 day): 106 meq/L
- DBIL ([…], time 7 day): 0.054 mg/dL
- GLC ([…], time 7 day): 199 mg/dL
- IP ([…], time 7 day): 8.1 mg/dL
- K ([…], time 7 day): 4.6 meq/L
- LDH ([…], time 7 day): 145 IU/L
- Na ([…], time 7 day): 140.4 meq/L
- PL ([…], time 7 day): 160.2 mg/dL
- RALB ([…], time 7 day): 3.8 g/dL
- TBIL ([…], time 7 day): 0.4 mg/dL
- TC ([…], time 7 day): 88.4 mg/dL
- TG ([…], time 7 day): 71.6 mg/dL
- TP ([…], time 7 day): 6.2 g/dL
- gamma-GTP ([…], time 7 day): 1.6 IU/L
- A/G ([…], time 14 day): 1.4
- ALP ([…], time 14 day): 757.4 IU/L
- ALT ([…], time 14 day): 32 IU/L
- AST ([…], time 14 day): 65.4 IU/L
- BUN ([…], time 14 day): 19.4 mg/dL
- CRE ([…], time 14 day): 0.6 mg/dL
- Ca ([…], time 14 day): 10.7 mg/dL
- Cl ([…], time 14 day): 107.2 meq/L
- DBIL ([…], time 14 day): 0.004 mg/dL
- GLC ([…], time 14 day): 180 mg/dL
- IP ([…], time 14 day): 8.4 mg/dL
- K ([…], time 14 day): 4.2 meq/L
- LDH ([…], time 14 day): 151.2 IU/L
- Na ([…], time 14 day): 141.4 meq/L
- PL ([…], time 14 day): 156 mg/dL
- RALB ([…], time 14 day): 3.9 g/dL
- TBIL ([…], time 14 day): 0.4 mg/dL
- TC ([…], time 14 day): 91.4 mg/dL
- TG ([…], time 14 day): 60.4 mg/dL
- TP ([…], time 14 day): 6.5 g/dL
- gamma-GTP ([…], time 14 day): 1.4 IU/L
- A/G ([…], time 28 day): 1.4
- ALP ([…], time 28 day): 536 IU/L
- ALT ([…], time 28 day): 34.6 IU/L
- AST ([…], time 28 day): 64.6 IU/L
- BUN ([…], time 28 day): 21.2 mg/dL
- CRE ([…], time 28 day): 0.4 mg/dL
- Ca ([…], time 28 day): 10.7 mg/dL
- Cl ([…], time 28 day): 106.2 meq/L
- DBIL ([…], time 28 day): 0.014 mg/dL
- GLC ([…], time 28 day): 180 mg/dL
- IP ([…], time 28 day): 7.7 mg/dL
- K ([…], time 28 day): 4.9 meq/L
- LDH ([…], time 28 day): 138.8 IU/L
- Na ([…], time 28 day): 141.6 meq/L
- PL ([…], time 28 day): 144.8 mg/dL
- RALB ([…], time 28 day): 4 g/dL
- TBIL ([…], time 28 day): 0.4 mg/dL
- TC ([…], time 28 day): 79.6 mg/dL
- TG ([…], time 28 day): 76.2 mg/dL
- TP ([…], time 28 day): 6.8 g/dL
- gamma-GTP ([…], time 28 day): 2 IU/L
